Test results taken from paper PMC4876372 (Scientific Reports, 2016).

Assays:
[1] = target: T1, MTH1 in intact HeLa cells (Homo sapiens, UniProt P36639); assay: Target engagement assay (CETSA); format: cell-based; conditions: 300 μM, 1 h
T1 construct: endogenous in cells; host or cells: HeLa
Description: To analyze the interaction between small-molecule ligands and their target proteins in intact cells, a cellular thermal shift assay (CETSA) was performed as described previously with minor modifications. […] After treatment, cells were collected with trypsin and resuspended in Tris-buffered saline (TBS). The cell suspension was aliquoted into four polymerase chain reaction (PCR) tubes and heated at 45, 50, 55, or 60 °C for 5 min. Subsequently, cells were lysed by three repeated freeze-thaw cycles using liquid nitrogen. Precipitated proteins were separated from the soluble fraction by centrifugation at 17,000 × g for 20 min. Soluble proteins collected in the supernatant were subjected to sodium dodecyl sulfate polyacrylamide gel electrophoresis (SDS-PAGE) and transferred to a polyvinylidene difluoride (PVDF) membrane (Millipore) for western blot analysis. […] Santa Cruz Biotechnology) and a horseradish peroxidase–labeled secondary antibody (Vector Laboratories) in sequence. They were then visualized with Fusion Solo S (Vilber Lourmat) using a Super Signal West Pico Chemiluminescence Substrate (Pierce). After detection of MTH1 by western blot, proteins on the membrane were visualized by staining with Coomassie brilliant blue (CBB).

[2] = target: T2, His-tagged human recombinant DCTPP1 protein (Homo sapiens, UniProt Q9H773); assay: DCTPP1 enzyme assay; format: biochemical; conditions: at 100 μM
T2 construct: His; purchased ATGen
T2 sequence (Q9H773 1-170): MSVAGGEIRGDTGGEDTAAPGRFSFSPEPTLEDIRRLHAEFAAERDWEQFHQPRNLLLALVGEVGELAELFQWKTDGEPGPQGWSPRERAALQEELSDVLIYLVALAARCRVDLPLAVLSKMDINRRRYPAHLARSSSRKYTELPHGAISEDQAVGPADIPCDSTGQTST
Description: Likewise, the enzymatic activities of ITPA and DCTPP1 were measured using a PPiLight Inorganic Pyrophosphate Assay kit. For the ITPA enzyme assay, we used ITPA assay buffer (100 mM Tris-acetate, 50 mM Mg(OAc)2, 0.005% Tween-20, and 2 mM DTT, pH 7.5), His-tagged human recombinant ITPA protein (5 nM; ProSpec), and ITP (25 μM). For the DCTPP1 enzyme assay, we used DCTPP1 assay buffer (100 mM Tris-acetate, 100 mM NaCl, 10 mM Mg(OAc)2, 0.005% Tween-20, and 2 mM DTT, pH 7.5), His-tagged human recombinant DCTPP1 protein (50 nM; ATGen), and deoxycytidine triphosphate (dCTP; 50 μM).
To exclude false positive compounds that inhibit PPi detection, the effects of test compounds on 10 μM Na4P2O7-induced luciferase activity were examined.

[3] = tested on: nuclear 53BP1 foci in HeLa cells; assay: 53BP1 foci immunofluorescence (DNA damage); format: cell-based, human; conditions: 24 h, only at the higher concentrations (100-300 μM)
Description: For 53BP1, test compound–treated HeLa cells were fixed in 3% formalin in PBS containing 0.1% Triton X-100 for 15 min and permeabilized in 0.5% Triton X-100 for 5 min. After blocking with 10% FBS and 0.1% Triton X-100 in PBS for 1 h, cells were incubated sequentially with a primary antibody against 53BP1 (1:600, sc-22760; Santa Cruz Biotechnology) in blocking solution at 37 °C for 1 h and with Alexa Fluor 568-conjugated secondary antibody (1:400, Life Technologies) under the same condition.
After a quick rinse in PBS, DNA was counterstained with 0.5 µg/mL Hoechst 33342 (Sigma-Aldrich) in PBS at room temperature for 10 min. Images were analyzed on a fluorescence microscope (Delta Vision). […]

HeLa cells = assay: Cell cycle analysis (propidium iodide flow cytometry); format: cell-based, human; conditions: 24 h, HeLa cells (Ctrl 0.9%)
Description: The HeLa cells were seeded in 12-well plates and treated with test compounds for the indicated time. Cells were harvested, washed with PBS, and incubated in propidium iodide (PI) solution containing 50 µg/mL propidium iodide, 0.1% sodium citrate, 0.2% Nonidet P-40, and 0.25 µg/mL RNase A (Nacalai Tesque) for 30 mi n in the dark.
Cellular DNA content was analyzed by fluorescence-activated cell sorting using a Cytomics FC500 (Beckman Coulter). […]

[4] = tested on: PANC-1, MIA PaCa-2, A431, Jurkat, MG-63, NIH3T3 and NIH3T3/KRAS cells; format: cell-based; conditions: 72 or 96 h, WST-8
Description: Human cancer cell lines HeLa (cervical cancer), MIA PaCa-2 (pancreatic cancer), A431 (epidermoid carcinoma), and human embryonic kidney derived cell line HEK293T were cultured in Dulbecco’s Modified Eagle’s Medium (DMEM; Invitrogen) containing 10% fetal bovine serum (FBS), penicillin G (50 units/mL) and streptomycin (50 µg/mL). Human cancer cell lines Panc-1 (pancreatic cancer) and Jurkat (T cell lymphoma) were cultured in RPMI (Gibco) containing 10% FBS, penicillin G (50 units/mL) and streptomycin (50 µg/mL). Human osteosarcoma cell line MG-63, mouse embryonic fibroblast NIH3T3 cells and its transformant NIH3T3/KRAS cells1 were cultured in DMEM (Sigma-Aldrich) containing 10% calf serum, glutamine (0.3 g/L), penicillin G (50 units/mL), and streptomycin (50 µg/mL). All cell lines were incubated at 37 °C in a humidified atmosphere containing 5% CO2.
The cells were seeded in 96-well plates, cultured overnight, and treated with test compounds for the indicated time. Subsequently, cell viability was measured by the WST-8 assay, using Cell Count Reagent SF (Nacalai Tesque) according to the manufacturer ’s instructions, with the measurement of absorbance set at 450 nm on the ARVO SX 1420 Multilabel Counter (Wallac). […]

Structure (SMILES): CC1(C)CC2CC(C)(CN2c2ncnc3[nH]cnc23)C1 (stereo not drawn) [NPD7155]
- thermal stabilization of cellular MTH1 [1]: considerably stabilized
- effect on enzymatic activity of DCTPP1 [2]: did not affect
- DNA damage (nuclear 53BP1 foci formation) [3]: increased nuclear 53BP1 foci formation
- sub-G1 cell population (HeLa cells; 100 μM): 4.9%
- sub-G1 cell population (HeLa cells; 200 μM): 9.0%
- cytotoxicity against cancer cell lines and KRAS-transformed fibroblast cells [4]: less potent cytotoxicity

Structure (SMILES): Nc1nc(NCCc2ccccc2)c2nc[nH]c2n1 [NPD9948]
- thermal stabilization of cellular MTH1 [1]: considerably stabilized
- effect on enzymatic activity of DCTPP1 [2]: did not affect
- DNA damage (nuclear 53BP1 foci formation) [3]: increased nuclear 53BP1 foci formation
- sub-G1 cell population (HeLa cells; 100 μM): 8.2%
- sub-G1 cell population (HeLa cells; 200 μM): 19%
- cytotoxicity against cancer cell lines and KRAS-transformed fibroblast cells [4]: less potent cytotoxicity
